The experiment relates to L1210 leukemia ip in BDF1 mice, survival T/C. Put plainly: NCI In Vivo Anticancer Drug Screen. Data for tumor model L1210 Leukemia (intraperitoneal) in B6D2F1 (BDF1) mice. The settings on record: endpoint: mean survival time, higher = longer survival. In a few lines:
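Mice bearing the transplanted tumor received compound or vehicle. Survival of the treated group was divided by that of the vehicle-treated control group to give the ratio.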

The mark [1] stands for this setting: dose: 100.0 mg/kg/injection, schedule: Q01DX001 (ip), vehicle: Klucel (hydroxypropylcellulose) (HPC).
The mark [2] stands for this setting: dose: 100.0 mg/kg/injection, schedule: Q01DX009 (ip), vehicle: saline with Tween-80.
Setting [3] is: dose: 100.0 mg/kg/injection, schedule: Q04DX003 (ip), vehicle: saline with Tween-80.
Setting [4] is: dose: 200.0 mg/kg/injection, schedule: Q01DX001 (ip), vehicle: Klucel (hydroxypropylcellulose) (HPC).
[5] abbreviates: dose: 200.0 mg/kg/injection, schedule: Q01DX009 (ip), vehicle: saline with Tween-80.
Setting [6] is: dose: 200.0 mg/kg/injection, schedule: Q04DX003 (ip), vehicle: saline with Tween-80.
Setting [7] is: dose: 400.0 mg/kg/injection, schedule: Q01DX001 (ip), vehicle: Klucel (hydroxypropylcellulose) (HPC).
Where [8] appears, read: dose: 400.0 mg/kg/injection, schedule: Q01DX009 (ip), vehicle: saline with Tween-80.
The mark [9] stands for this setting: dose: 400.0 mg/kg/injection, schedule: Q04DX003 (ip), vehicle: saline with Tween-80.
Where [10] appears, read: dose: 100.0 mg/kg/injection, schedule: Q01DX009 (ip), vehicle: Klucel (hydroxypropylcellulose) (HPC).
Setting [11] is: dose: 200.0 mg/kg/injection, schedule: Q01DX009 (ip), vehicle: Klucel (hydroxypropylcellulose) (HPC).
Where [12] appears, read: dose: 400.0 mg/kg/injection, schedule: Q01DX009 (ip), vehicle: Klucel (hydroxypropylcellulose) (HPC).
Where [13] appears, read: dose: 100.0 mg/kg/injection, schedule: Q04DX003 (ip), vehicle: saline.
The mark [14] stands for this setting: dose: 100.0 mg/kg/injection, schedule: Q01DX001 (ip), vehicle: saline with Tween-80.
Where [15] appears, read: dose: 400.0 mg/kg/injection, schedule: Q01DX001 (ip), vehicle: saline with Tween-80.
[16] abbreviates: dose: 12.5 mg/kg/injection, schedule: Q01DX009 (ip), vehicle: saline.
The mark [17] stands for this setting: dose: 25.0 mg/kg/injection, schedule: Q01DX009 (ip), vehicle: saline.
The mark [18] stands for this setting: dose: 50.0 mg/kg/injection, schedule: Q01DX009 (ip), vehicle: saline.
Where [19] appears, read: dose: 100.0 mg/kg/injection, schedule: Q01DX009 (ip), vehicle: saline.
[20] abbreviates: dose: 100.0 mg/kg/injection, schedule: Q04DX003 (ip), vehicle: Klucel (hydroxypropylcellulose) (HPC).
The mark [21] stands for this setting: dose: 200.0 mg/kg/injection, schedule: Q04DX003 (ip), vehicle: Klucel (hydroxypropylcellulose) (HPC).
[22] abbreviates: dose: 400.0 mg/kg/injection, schedule: Q04DX003 (ip), vehicle: Klucel (hydroxypropylcellulose) (HPC).
Setting [23] is: dose: 100.0 mg/kg/injection, schedule: Q04DX002 (ip), vehicle: saline with Tween-80.
Where [24] appears, read: dose: 200.0 mg/kg/injection, schedule: Q04DX002 (ip), vehicle: saline with Tween-80.
The mark [25] stands for this setting: dose: 400.0 mg/kg/injection, schedule: Q04DX002 (ip), vehicle: saline with Tween-80.
Setting [26] is: dose: 100.0 mg/kg/injection, schedule: Q01DX001 (ip), vehicle: steriod suspending solution.
Where [27] appears, read: dose: 200.0 mg/kg/injection, schedule: Q01DX001 (ip), vehicle: saline.

Molecules are shown by their SMILES. Values joined by “and” are separate entries in the source; they are usually repeats but may differ in a detail not shown here. Identical values can stand only once. Inconclusive results and toxic doses are left out.

For the compound `COC(OC)c1[nH]c(=S)[nH]c(=O)c1Cc1cccc2ccccc12`, the T/C is 105 % of control under setting [1]; 96 % of control under setting [2]; 100 % of control under setting [3]; 105 % of control under setting [4]; 89 % of control under setting [5]; 100 % of control under setting [6]. For the same compound, the T/C was 96 % of control under setting [7], 93 % of control under setting [8] and 102 % of control under setting [9].

Take `COC(CCC#N)c1ccccc1` (stereo not given): the T/C reads like this: under setting [2], 97 % of control; under setting [3], 105 % of control; under setting [5], 100 % of control; under setting [6], 97 % of control; under setting [8], 101 % of control; under setting [9], 102 % of control.

With `O=C(O)CCC(=O)Nc1cccc(C(F)(F)F)c1`, the T/C by setting is: under setting [10], 103 % of control; under setting [11], 105 % of control; under setting [12], 100 % of control.

Consider `CCCCCCCC(=O)/C=C/c1ccc(C)cc1`, for which the T/C runs as follows: under setting [13], 105 % of control; (dose: 200.0 mg/kg/injection, schedule: Q04DX003 (ip), vehicle: saline) 103 % of control; (dose: 400.0 mg/kg/injection, schedule: Q04DX003 (ip), vehicle: saline) 92 % of control.

`CC12CCC3C(CC=C4CC(O)CCC43C)C1C/C(=C\c1ccccc1)C2=O` (stereo not given): the T/C under setting [14] was 93 % of control; the T/C (dose: 200.0 mg/kg/injection, schedule: Q01DX001 (ip), vehicle: saline with Tween-80) is 93 % of control; the T/C under setting [15] is 92 % of control.

Turning to `CC(=O)N(NC(C)C)C(C)C`, the T/C is 104 % of control (dose: 6.25 mg/kg/injection, schedule: Q01DX009 (ip), vehicle: saline); 93 % of control under setting [16]; 94 % of control under setting [17]; 98 % of control (dose: 25.0 mg/kg/injection, schedule: Q04DX003 (ip), vehicle: saline); 100 % of control under setting [18]; 98 % of control (dose: 50.0 mg/kg/injection, schedule: Q04DX003 (ip), vehicle: saline). The T/C by setting is: under setting [19], 104 % of control; under setting [13], 93 % of control.

On to `COC(OC)c1nc(N)nc(N)c1-c1ccccc1`, for which the T/C runs as follows: (dose: 100.0 mg/kg/injection, schedule: Q01DX008 (ip), vehicle: Klucel (hydroxypropylcellulose) (HPC)) 108 % of control; under setting [20], 103 % of control; under setting [21], 95 % of control; under setting [22], 94 % of control.

In the case of `C=COC(=O)c1ccccc1`, the T/C under setting [2] is 98 % of control; the T/C under setting [23] was 93 % of control; the T/C under setting [5] is 98 % of control; the T/C under setting [24] was 93 % of control; the T/C under setting [8] was 95 % of control; the T/C under setting [25] was 93 % of control.

As to `CCN(C(=O)NC(C)(C)C)c1cccc(C)c1`, the T/C is, setting by setting: (dose: 12.5 mg/kg/injection, schedule: Q01DX009 (ip), vehicle: saline with Tween-80) 108 % of control; (dose: 25.0 mg/kg/injection, schedule: Q01DX009 (ip), vehicle: saline with Tween-80) 105 % of control and 106 % of control; under setting [14], 122 % of control; under setting [23], 101 % of control and 86 % of control; under setting [3], 102 % of control; under setting [24], 94 % of control and 97 % of control. Also, the T/C reads like this: under setting [6], 105 % of control; under setting [15], 103 % of control; under setting [25], 101 % of control.

Take `O=C(O)C(O)c1ccc(Cl)cc1` (stereo not given): the T/C is 96 % of control under setting [19] and 91 % of control (dose: 200.0 mg/kg/injection, schedule: Q01DX009 (ip), vehicle: saline).

As to `OC1CC2CCC(C2)C1(O)c1ccccc1` (stereo not given), the T/C under setting [20] is 93 % of control, the T/C under setting [21] is 117 % of control and the T/C under setting [22] was 93 % of control.

Regarding `CCN(CC)C(=S)[S][Sb]([c]1ccccc1)[c]1ccccc1`, under setting [26], the T/C is 110 % of control.

`C(=C\SCc1ccccc1)/SCc1ccccc1`: the T/C is 103 % of control (dose: 100.0 mg/kg/injection, schedule: Q04DX002 (ip), vehicle: Klucel (hydroxypropylcellulose) (HPC)); 97 % of control under setting [3]; 103 % of control (dose: 200.0 mg/kg/injection, schedule: Q04DX002 (ip), vehicle: Klucel (hydroxypropylcellulose) (HPC)); 101 % of control under setting [6]; 96 % of control (dose: 400.0 mg/kg/injection, schedule: Q04DX002 (ip), vehicle: Klucel (hydroxypropylcellulose) (HPC)); 102 % of control under setting [9].

Turning to `Cc1ccc(CC(=S)N2CCOCC2)cc1`, the T/C was 95 % of control under setting [26]; 98 % of control (dose: 200.0 mg/kg/injection, schedule: Q01DX001 (ip), vehicle: steriod suspending solution); 96 % of control (dose: 400.0 mg/kg/injection, schedule: Q01DX001 (ip), vehicle: steriod suspending solution).

Consider `O=C(C(CO)C(CO)C(=O)N1Cc2cc3ccccc3nc2C1)N1Cc2cc3ccccc3nc2C1` (stereo not given), for which the T/C is, setting by setting: under setting [1], 103 % of control; under setting [4], 95 % of control; under setting [7], 92 % of control.

With `CCCCCC(=C/c1ccccc1)/C=N/NC(=O)c1ccc[n+](C)c1`, the T/C is, setting by setting: (dose: 50.0 mg/kg/injection, schedule: Q01DX009 (ip), vehicle: Klucel (hydroxypropylcellulose) (HPC)) 90 % of control; under setting [10], 98 % of control.

For `C=CCc1ccc2c(C)cc[n+](C)c2c1O`, the T/C reads like this: (dose: 100.0 mg/kg/injection, schedule: Q01DX001 (ip), vehicle: saline) 91 % of control; under setting [27], 93 % of control.

As for `CCOC(=O)c1ccccc1COc1ccc([N+](=O)[O-])cc1Cl`, the T/C runs as follows: under setting [10], 93 % of control; under setting [11], 93 % of control; under setting [12], 88 % of control.

Turning to `CCCCOc1ccc(OC(=O)Nc2cc(C)ccc2C)cc1`, the T/C reads like this: under setting [10], 91 % of control; under setting [20], 108 % of control; under setting [11], 96 % of control; under setting [21], 95 % of control; under setting [12], 98 % of control; under setting [22], 90 % of control.

On to `Cc1ccc([P+](Cc2ccccc2)(c2ccccc2)c2ccc(C)cc2)cc1`, for which the T/C (dose: 15.0 mg/kg/injection, schedule: Q01DX001 (ip), vehicle: saline) was 96 % of control.

As to `CN(C)/N=N/c1ncn[nH]1`, the T/C (dose: 3.0 mg/kg/injection, schedule: Q01DX009 (ip), vehicle: saline) is 117 % of control; the T/C (dose: 6.0 mg/kg/injection, schedule: Q01DX009 (ip), vehicle: saline) is 114 % of control; the T/C (dose: 12.5 mg/kg/injection, schedule: Q01DX001 (ip), vehicle: saline) is 104 % of control; the T/C under setting [16] was 151 % of control; the T/C (dose: 12.5 mg/kg/injection, schedule: Q04DX003 (ip), vehicle: saline) was 120 % of control; the T/C (dose: 22.0 mg/kg/injection, schedule: Q04DX003 (ip), vehicle: saline) was 123 % of control. The T/C runs as follows: (dose: 25.0 mg/kg/injection, schedule: Q01DX001 (ip), vehicle: saline) 108 % of control; under setting [17], 203 % of control; (dose: 50.0 mg/kg/injection, schedule: Q01DX001 (ip), vehicle: saline) 116 % of control; under setting [18], 115 % of control; under setting [27], 155 % of control; (dose: 400.0 mg/kg/injection, schedule: Q01DX001 (ip), vehicle: saline) 91 % of control.

The values are drawn from PubChem BioAssay AID248 (DTP/NCI, 2004).
